Entries after “also recorded” stand apart in the source; their conditions may differ. Where two headings read alike, the source gives them in different places.
Experiments:
BV2 cells [1] = assay: IL-6, TNF and MCP-1 production in LPS-stimulated BV2 cells (CBA assay); type: cell-based; conditions: Mus musculus, BV-2, LPS-treated BV2 cells
JAK1 = molecular target: T1, JAK1 (Homo sapiens, UniProt P23458); assay: JAK1 biochemical test (33P-ATP filter binding, Reaction Biology); conditions: read-out: Inhibition of JAK1 (IC50)
T1 construct: purchased Reaction Biology Corp, Malvern, PA (contract testing)
T1 sequence (P23458 whole entry): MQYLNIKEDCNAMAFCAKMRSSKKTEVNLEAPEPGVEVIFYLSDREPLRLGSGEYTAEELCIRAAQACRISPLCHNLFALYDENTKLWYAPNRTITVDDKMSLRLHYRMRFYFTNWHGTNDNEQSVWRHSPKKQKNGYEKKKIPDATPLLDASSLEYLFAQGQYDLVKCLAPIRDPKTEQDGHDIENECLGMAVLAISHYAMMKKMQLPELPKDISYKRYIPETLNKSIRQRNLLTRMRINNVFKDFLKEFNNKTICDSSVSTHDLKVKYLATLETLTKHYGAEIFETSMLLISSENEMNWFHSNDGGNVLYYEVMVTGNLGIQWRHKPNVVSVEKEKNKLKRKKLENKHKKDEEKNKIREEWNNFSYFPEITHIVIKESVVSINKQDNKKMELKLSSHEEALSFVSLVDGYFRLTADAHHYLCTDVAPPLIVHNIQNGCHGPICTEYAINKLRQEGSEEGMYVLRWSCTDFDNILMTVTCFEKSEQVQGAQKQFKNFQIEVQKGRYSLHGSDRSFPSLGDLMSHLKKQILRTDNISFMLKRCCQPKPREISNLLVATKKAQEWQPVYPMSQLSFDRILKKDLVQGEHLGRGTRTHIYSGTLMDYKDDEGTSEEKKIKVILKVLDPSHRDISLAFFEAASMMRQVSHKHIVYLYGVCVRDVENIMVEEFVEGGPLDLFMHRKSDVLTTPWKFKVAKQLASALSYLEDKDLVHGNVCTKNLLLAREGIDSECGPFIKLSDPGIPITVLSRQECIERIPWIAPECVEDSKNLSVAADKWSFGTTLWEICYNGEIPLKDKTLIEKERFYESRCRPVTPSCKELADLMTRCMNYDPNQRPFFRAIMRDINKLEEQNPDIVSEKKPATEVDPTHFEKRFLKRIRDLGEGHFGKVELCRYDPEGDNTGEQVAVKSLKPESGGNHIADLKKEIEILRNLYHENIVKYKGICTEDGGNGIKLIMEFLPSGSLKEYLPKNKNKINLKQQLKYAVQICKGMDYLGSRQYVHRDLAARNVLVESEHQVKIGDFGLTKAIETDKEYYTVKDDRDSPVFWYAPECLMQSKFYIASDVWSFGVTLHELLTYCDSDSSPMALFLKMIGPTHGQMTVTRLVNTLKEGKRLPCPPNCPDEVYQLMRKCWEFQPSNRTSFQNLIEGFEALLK
Description: (§1) The tests were conducted by Reaction Biology Corp, Malvern, PA (Anastassiadis et al. Nat Biotechnol. 2011; 29(11):1039-45). The step is briefly described as follows, using the basic reaction buffer: 20 mM Hepes (pH 7.5), 10 mM MgCl2, 1 mM EGTA, 0.02% Brij35, 0.02 mg/ml BSA, 0.1 mM Na3VO4, 2 mM DTT and 1% DMSO. The required cofactor was added to each kinase reaction respectively. Each reaction was performed according to the following reaction steps: 1) Preparing the designated substrate in the newly prepared basic reaction buffer; 2) Transferring the required cofactor to the above matrix solution; 3) Transferring the designated kinase to the substrate solution and mixing well slightly; 4) Transferring a compound of Formula (I) in DMSO to the kinase reaction mixture with Acoustic technique (Echo550; nanoliter range), culturing for 20 minutes at room temperature; 5) Introducing ^33P-ATP (specific activity: 10 μCi/μl) to the reaction mixture to trigger a reaction; 6) Culturing at room temperature and conducting a kinase reaction for 2 hours; 7) Plotting the reaction on P81 ion exchange paper; and 8) Testing the kinase activity with a filter binding assay. The results shown in Table 1 indicate that compounds of Formulae (I)-(III) are potent and selective TYK2/JAK1 inhibitors.

TYK2 [2] = molecular target: T2, TYK2 (Homo sapiens, UniProt P29597); assay: TYK2 cellular ELISA assay using NK92 cells (IL-12 and IL-18 stimulated IFNγ excretion); type: cell-based; conditions: IL-12 2 ng/ml, IL-18 5 ng/ml, 24 hours
T2 construct: purchased Reaction Biology Corp, Malvern, PA (contract testing)
T2 sequence (P29597 whole entry): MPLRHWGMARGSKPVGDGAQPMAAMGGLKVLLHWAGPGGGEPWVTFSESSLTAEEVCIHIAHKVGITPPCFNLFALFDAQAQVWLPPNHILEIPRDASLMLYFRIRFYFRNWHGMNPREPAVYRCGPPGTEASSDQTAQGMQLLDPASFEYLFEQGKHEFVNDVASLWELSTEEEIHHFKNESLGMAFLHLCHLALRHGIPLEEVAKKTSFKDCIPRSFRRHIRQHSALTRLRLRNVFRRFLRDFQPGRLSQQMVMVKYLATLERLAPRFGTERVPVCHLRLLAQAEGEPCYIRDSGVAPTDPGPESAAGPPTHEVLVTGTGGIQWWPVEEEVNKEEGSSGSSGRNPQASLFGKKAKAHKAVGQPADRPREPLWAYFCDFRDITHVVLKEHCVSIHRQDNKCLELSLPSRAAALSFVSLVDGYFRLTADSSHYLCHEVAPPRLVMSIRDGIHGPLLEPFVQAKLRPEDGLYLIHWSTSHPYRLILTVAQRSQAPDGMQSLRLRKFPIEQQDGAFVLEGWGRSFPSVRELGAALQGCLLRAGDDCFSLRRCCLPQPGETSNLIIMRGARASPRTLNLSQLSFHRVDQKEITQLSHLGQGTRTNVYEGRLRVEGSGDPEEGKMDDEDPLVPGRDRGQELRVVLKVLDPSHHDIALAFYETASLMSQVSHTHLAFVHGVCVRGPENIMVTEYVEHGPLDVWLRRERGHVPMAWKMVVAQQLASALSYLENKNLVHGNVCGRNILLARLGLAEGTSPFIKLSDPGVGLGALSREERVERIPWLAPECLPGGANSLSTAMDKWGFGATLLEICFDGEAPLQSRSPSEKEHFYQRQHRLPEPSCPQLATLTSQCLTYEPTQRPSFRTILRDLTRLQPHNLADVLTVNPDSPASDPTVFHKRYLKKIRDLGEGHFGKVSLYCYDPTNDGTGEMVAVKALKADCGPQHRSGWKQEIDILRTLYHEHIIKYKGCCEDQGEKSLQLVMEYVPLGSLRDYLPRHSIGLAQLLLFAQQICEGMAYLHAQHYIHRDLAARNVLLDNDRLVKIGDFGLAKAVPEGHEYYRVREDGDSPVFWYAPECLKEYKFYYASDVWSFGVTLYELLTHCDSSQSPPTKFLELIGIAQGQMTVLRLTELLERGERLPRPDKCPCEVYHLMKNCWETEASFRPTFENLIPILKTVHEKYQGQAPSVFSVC
Description: This testing was performed to test cellular TYK2 activity using IL-12 and IL-18 stimulated IFNγ excretion assay in NK92 cells. The testing was performed according to the following procedure: 1) Replace NK92 cell media containing IL-2 with media not containing IL-2, maintain overnight; 2) Plate NK92 cells to 96-well plate at density of ˜150,000 cell/well; 3) Add different concentrations of test article to wells, maintain in incubator at 37° C. and 5% CO2 for 1 hour; 4) Add IL-12 (final concentration: 2 ng/ml) and IL-18 (final concentration: 5 ng/ml) to stimulate for 24 hours in the above incubator; 5) After 24 hours, centrifuge at 2000 rpm for 5 min, take the supernatant and analyze according to instructions of the ELISA kit. In this assay, compounds of Formulae (II) and (III) had IC50<100 nM.

BV2 cells [3] = assay: IL-6, TNF and MCP-1 production in LPS-stimulated BV2 cells (CBA assay); type: cell-based; conditions: for inhibition at 1.7 µM: Mus musculus, BV-2, LPS-treated BV2 cells
Description: (§2) This testing was performed to test the ability of compounds to alleviate the injury of HT22 cells induced by LPS activated BV2 cells. The testing was performed according to the following procedure: 1) Microglia BV2 cells were co-cultured on transwell inserts with HT22hippocampal neurons. BV2 cells were stimulated with LPS (200 ng/ml) for 96 h after treatment with a compound of Formula (II) at 1.7 μM. 2) HT22 cells were pre-treated with a compound of Formula (II) at 1.7 μM for 30 min and subsequently stimulated with LPS (200 ng/ml) for 96 h. 3) BV2 cells were treated using LPS. IL-6, TNF and MCP-1 productions were measured in cell supernatants using CBA assay.
In LPS-treated BV2 cells, there was a marked increase in IL-6, TNF and MCP-1 production, when compared to unstimulated cells.

HT22 cells [4] = assay: Viability of HT22 cells with LPS but without BV2 microglia; type: cell-based; conditions: 1.7 μM, presence or absence of LPS (200 ng/ml, 96 h)
Description: as §2
(§3) The protective effects of a compound of Formula (II) on microglial activation-induced neuronal death were evaluated in a BV2 microglia/HT22 neuron co-culture. Following stimulation of BV2 microglia with LPS (200 ng/mL), there was a marked reduction in the viability of co-cultured HT22 cells.

MOG35-55-EAE model = assay: MOG35-55 induced experimental autoimmune encephalomyelitis (MOG35-55-EAE) model; type: in vivo, female C57BL/6 mice
From the text: MOG-EAE is one of the most common and widely used animal models for multiple sclerosis, which is a chronic inflammatory disease in the central nervous system that is characterized by axon demyelination and degeneration. In this mouse model, animals were immunized with myelin oligodendrocyte glycoprotein (MOG) peptide in Complete Freund's Adjuvant (CFA) firstly and then boosted with Pertussis Toxin. Upon immunization, mice developed chronic inflammation in the central nervous system, which led to axon dysfunction, and associated movement disabilities and paralysis. The disease onset usually starts from Day 10 and lasts for 20-30 days. This model allows specific investigation of the neuroinflammatory signaling pathways and evaluation of the efficacy of novel anti-inflammatory therapies. […] Mortality and observed clinical signs were recorded for individual animals in detail. Body weight and disease activity index (DAI) were measured twice per week after disease induction and then every other day starting from Day 10 to the study end. The DAI was scored according to the scoring criteria: 0=normal; 1=loss of tail tone; 2=loss of tail tone and hind limb weakness; 3=severe weakness in both limbs/single limb paralysis; 4=paralysis of two or more limbs; 5=death. […] The body weights and disease score were measured by using StudyDirector™ software (version 3.1.399.19). […]

TYK2 [5] = molecular target: T2, TYK2; assay: TYK2 biochemical test (33P-ATP filter binding, Reaction Biology); conditions: read-out: Inhibition of TYK2 (IC50)
Description: as §1

HT22 cells [6] = assay: HT22 neuronal cell death induced by LPS activated BV2 microglia (transwell co-culture); type: cell-based; conditions: 1.7 μM pre-treatment of BV2, LPS 200 ng/ml, 96 h
Description: as §2, §3

[7] = read-out: Inhibition of IL-6 production
[8] = read-out: Inhibition of MCP-1 production
[9] = read-out: Inhibition of TNF production

Cc1nc2cnc3ccoc3c2n1[C@H]1CC[C@H](CC#N)OC1 [Formula (II)]
inhibition at 5 µM (BV2 cells [1]; [7]): 72.4%
inhibition at 5 µM (BV2 cells [1]; [8]): 83.3%
inhibition at 5 µM (BV2 cells [1]; [9]): 81.2%
inhibition at 15 µM (BV2 cells [1]; [7]): 83.6%
inhibition at 15 µM (BV2 cells [1]; [8]): 111%
inhibition at 15 µM (BV2 cells [1]; [9]): 118%
IC50 (JAK1): < 10 nM
IC50 (TYK2 [2]): < 100 nM
IL-6, TNF and MCP-1 production (in words) (BV2 cells [3]; LPS-stimulated BV2 cells, pre-treatment): dose-dependently reduced; also recorded: inhibited
inhibition at 1.7 µM (BV2 cells [3]; [7]): 49.1%
inhibition at 1.7 µM (BV2 cells [3]; [8]): 56.9%
inhibition at 1.7 µM (BV2 cells [3]; [9]): 39.9%
Viability of HT22 cells (HT22 cells [4]): did not affect the viability
Disease Activity Index (DAI) (MOG35-55-EAE model; 30 mg/kg BID oral gavage from Day 10, vs vehicle, Days 10-26): reduced disease activity; also recorded: lower DAI
Body weight loss (MOG35-55-EAE model; 30 mg/kg BID oral gavage, mice with EAE): significantly reduced body weight loss
IC50 (TYK2 [5]): < 10 nM
Toxicity to HT22 cells (neuronal cell death) from LPS stimulation of BV2 microglia (HT22 cells [6]): significantly reduced toxicity to HT22 cells; also recorded: reduced HT22 neuronal cell death

Source: patent US20250032465A1, “METHODS OF TREATING CNS DISORDERS” (HANGZHOU HIGHLIGHTLL PHARMACEUTICAL CO., LTD, priority 2021, published 2025)
